Data set [1] can be described thus: Thermodynamic solubility in simulated intestinal fluid (FaSSIF). Format: physicochemical. The following applies: simulated intestinal fluid (FaSSIF), thermodynamic from solid, 37° C., 1000 rpm. The procedure:
50 mM of phosphate buffer, pH=7.4:0.39 g of NaH2PO4·2H2O, 1.4025 g of Na2HPO4 were weighed, placed into an Erlenmeyer flask, dissolved with the addition of 240 ml of water, homogenously mixed, adjusted to pH 7.4 with 10 M NaOH solution, transferred into a 250 ml volumetric flask and diluted with water to the scale.
Simulated intestinal fluid FaSSIF: 54.76 mg of FaSSIF-V2 (Biorelevant, batch. V2FAS-0619-A, lot. V2FAS01) was weighed, and added to 15 ml of buffer, and after dissolution, the solution was made up to 30 ml and left to stand at room temperature for 1 hour for use.
Waters e2695 HPLC high performance liquid chromatography, Mettler XSE105 analytical balance.
Stock solution containing 10 mM of each test compound was formulated using DMSO, diluted into […] standard curve solution using diluent (ACN:PB buffer with a volume ratio of 50:50), and tested by HPLC to obtain a standard curve of concentration vs peak area of each test compound.
Thermodynamic solubility in simulated intestinal fluid (TS in FaSSIF). About 0.3 mg of each sample (test compound) was weighed, added into 1.5 mL of FaSSIF solution, two samples in parallel, shaken at 1000 rpm and 37° C. for 4 hours, and filtered, 1 mL of primary filtrate was discarded, then 400 μL of subsequent filtrate was taken, and tested by using a high performance liquid chromatograph (UV).

Data set [2] concerns the target human α5β3γ2 receptor (α5-GABAA receptor) (Homo sapiens (Human), UniProt P18507+P31644). Description: Radioligand (3H-flunitrazepam) competition binding assay, BZD site. The following applies: 3H-flunitrazepam 1 nM; HEK293 membranes expressing human α5β3γ2. The gist of the method:
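Membranes from HEK293 cells stably expressing human α2β3γ2 or α5β3γ2 (5 μg protein/well) incubated 1 h at room temperature with 1 nM ^3H-flunitrazepam and 8-point 4-fold compound dilutions; nonspecific binding defined with 10 μM flumazenil. Filter-bound radioactivity counted; Ki derived from fitted IC50.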

Data set [3] deals with human α2β3γ2 receptor (α2-GABAA receptor) (Homo sapiens (Human), UniProt P18507+P47869). The experiment in a line: Radioligand (3H-flunitrazepam) competition binding assay, BZD site; α2 vs α5 binding selectivity. To be noted: ratio of Ki at α2β3γ2 to Ki at α5β3γ2. From the text: α, β and γ subunits are essential for the formation of a complete functional GABAA receptor. In this example, HEK293 cell strains stably expressing human α5-GABAA receptor (comprising α5β3γ2 subunit) and α2-GABAA receptor (comprising α2β3γ2 subunit) were constructed and screened, respectively, by liposome transfection method (Felgner, P. L., et al., Proceedings of the National Academy of Sciences, 1987, 84:7413-7417). The specific subunit protein sequences are as follows: α5 subunit (protein sequence can be found in GenBank accession number: NM_000810.3); α2 subunit (protein sequence can be found in GenBank accession number: NM_000807.4); β3 subunit (protein sequence can be found in GenBank accession number: NM_000814.5); γ2 subunit (protein sequence can be found in GenBank accession number: NM_000816.3).
The above cell lines were subcultured. Amplification of α5β3γ2-HEK293 and α2β3γ2-HEK293 cells was used to test the affinity of the compounds to benzodiazepine site (BZD) of the GABAA receptor. During the passage of α5β3γ2-HEK293 cells, some of the suspended cells were spread on a glass slide pretreated with Poly-D-Lysine for electrophysiological testing.
Flunitrazepam is a non-specific reagent that binds to the BZD site efficiently. The affinity of the compounds to the BZD sites of the human α5β3γ2 and α2β3γ2 receptors can be determined by competing the compound with ^3H-flunitrazepam (isotope ^3H-labeled flunitrazepam) for binding to these two receptors.
Membrane preparation: HEK293 cells stably expressing human α5β3γ2 receptor or α2β3γ2 receptor were collected, suspended in 50 mM Tris-HCl buffer (pH=7.4), homogenized on ice by a homogenizer for 20 seconds 10 times, and centrifuged at 4° C., 1000 g for 10 min. The supernatant was collected, and the above steps were repeated. The supernatant was centrifuged (33800 g; centrifuge purchased from Thermo, rotor model: A27-8×50) at 4° C. for 60 min, and the precipitate was resuspended in Tris buffer (50 mM Tris-HCl, 10 mM MgCl2, 0.5 mM EDTA, 10% glycerol). The precipitate was the cell membrane. Protein content was determined by BCA (Bicinchoninic Acid) method (BCA kit from Pierce (Annoron)). The cell membrane was prepared into 1 ml aliquot and stored at −80° C.
Radioligand competition binding assay: the assay was carried out in a 200 μL system (96-well plate from Agilent) with 100 μL of cell membrane. The concentration of ^3H-flunitazepam (from PerkinElmer, lot: NET567250 UC) was 1 nM and the concentration of test compound was in the range 1×10^−5-10^−6 M. Flumazenil (from Tocris; lot: 1318) was used as a control. 1 μL of 2 mM flumazenil (final concentration 10 μM) was added to the Low signal control well (Low control, LC) and 1 μL of DMSO (from Sigma aldrich, lot: 472301) was added to the High signal control well (High control, HC). The final target membrane protein concentration was 5 μg/well. All test compound sample stocks were 10 mM DMSO solutions. The working concentration of the samples is to dilute all samples with DMSO to 0.2 mM, and then perform 4-fold continuous gradient dilution for a total of 8 concentration gradients. The 96-well plate was sealed with a plate sealing membrane and then incubated on a shaker at room temperature for 1 hour. Meanwhile, GF/C filter plate was soaked with a plate soaking buffer (0.3% PEI, polyethyleneimine, purchased from Sigma aldrich, model: P314, stored at 4° C.) for at least 0.5 hours. After completion of binding incubation, the cells were collected with a cell collector onto the GF/C filter plate and washed four times with a plate washing buffer (50 mM Tris-HCl, pH 7.4, stored at 4° C.). […]

Data set [4] deals with α5-GABAA receptor (Homo sapiens (Human), UniProt P18507+P31644). Description: Whole-cell patch clamp electrophysiology, inverse regulation activity in α5β3γ2-HEK293 cells. Format: cell-based. The following applies: compound 100 nM; GABA 0.05-0.06 μM (about EC7-8); clamped at −60 mV; read-out: Inverse regulation efficiency to α5-GABAA receptor. The gist of the method:
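HEK293 cells expressing α5β3γ2 recorded whole-cell at −60 mV holding potential, GABA 0.05-0.06 μM (about EC7-8) applied, then compound at 100 nM final with GABA. pH 7.4 extracellular, CsCl-based pipette solution. Inverse regulation efficiency = (Itreatment−Igaba)/(Igaba−Iprebaseline)×100%.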
(In patch-clamp work, channel activity is measured electrically.)

Data set [5] concerns the target α5-GABAA receptor (Homo sapiens (Human), UniProt P31644). The following applies: highest concentration of L-655,708; GABA 1 μM; cited from earlier work.

Converted amounts (≈) assume the structure as drawn.

Consider nine compounds from patent US20250215016A1, “ISOXAZOLE-HETEROCYCLIC DERIVATIVE, PHARMACEUTICAL COMPOSITION AND USE” (SHANGHAI SIMR BIOTECHNOLOGY CO., LTD, priority 2022, published 2025).

In general, solubility (thermodynamic) refers to the concentration in solution at equilibrium with solid. For the compound `Cc1noc(-c2ccc(OCc3c(-c4ccccc4)noc3C)nc2)n1` [WO2009071476, Example 245, reference compound], the solubility (thermodynamic) at 4 h in data set [1] is 0.9 µg/mL (≈ 2.58 µM).
The Ki is a measure of affinity in units of concentration, obtained from inhibition or displacement. Turning to `Cc1onc(-c2ccc(F)cc2)c1COc1ccc(N2CCn3ccnc3C2)nn1` [Compound 35, 4-(((6-(5,6-dihydroimidazo [1,2-a]pyrazin-7(8H)-yl)pyridazin-3-yl)oxy)methyl)-3-(4-fluorophenyl)-5-methylisoxazole], in data set [2], the Ki was 1.44 nM. In data set [3], the “Selectivity α2 ki/α5 ki” value is 35.8 folds. In addition, the inhibition at 0.1 µM at α5-GABAA receptor [4] stood at 49%.
On to `CCOC(=O)c1ncn2c1[C@@H]1CCCN1C(=O)c1cc(OC)ccc1-2` [L-655,708], for which the “Inhibition of GABA-induced current” value at α5-GABAA receptor [5] is on record as 15%.
For the compound `Cc1onc(-c2ccc(F)cc2)c1COc1ccc(-c2nnc3n2CCN(S(C)(=O)=O)C3)cn1` [Compound 31, 3-(4-fluorophenyl)-5-methyl-4-(((5-(7-(methylsulfonyl)-5,6,7,8-tetrahydro-[1,2,4]triazolo[4,3-a]pyrazin-3-yl)pyridin-2-yl)oxy)methyl)isoxazole], the solubility (thermodynamic) at 4 h in data set [1] is 32.9 µg/mL (≈ 67.8 µM).
Turning to `Cc1onc(-c2ccc(F)cc2)c1COc1ccc(-c2nnc3n2CCCOC3)cn1` [Compound 20, 3-(6-((3-(4-fluorophenyl)-5-methylisoxazol-4-yl)methoxy)pyridin-3-yl)-6,7-dihydro-5H,9H-[1,2,4]triazolo[3,4-c][1,4]oxazepane], the affinity in data set [2] corresponds to a Ki of 11.2 nM. For the same compound, the “Selectivity α2 ki/α5 ki” value in data set [3] is 109 folds. Further, the inhibition at 0.1 µM at α5-GABAA receptor [4] turned out to be 45%.
In data set [2], `Cc1onc(-c2ccc(F)cc2)c1COc1ccc(-c2nnc3n2CCCOC3)nn1` [Compound 21, 3-(6-((3-(4-fluorophenyl)-5-methylisoxazol-4-yl)methoxy)pyridazin-3-yl)-6,7-dihydro-5H,9H-[1,2,4]triazolo[3,4-c][1,4]oxazepane] yielded a Ki of 0.91 nM. The “Selectivity α2 ki/α5 ki” value in data set [3] was 51 folds. Moreover, the inhibition at 0.1 µM on α5-GABAA receptor [4] is 46%.
For `COc1ncc(-c2ccc(OCc3c(C)nnn3-c3ccc(C(F)F)cc3)nn2)cn1` [WO2020016443A1, Example 3, reference compound], the “Selectivity α2 ki/α5 ki” value in data set [3] was 14.5 folds.
For the compound `CC(=O)N1CCn2c(nnc2-c2ccc(OCc3c(-c4ccc(F)cc4)noc3C)nc2)C1` [Compound 30, 1-(3-(6-((3-(4-fluorophenyl)-5-methylisoxazol-4-yl)methoxy)pyridin-3-yl)-5,6-dihydro-[1,2,4]triazolo[4,3-a]pyrazin-7(8H)-yl)ethan-1-one], the affinity in data set [2], expressed as Ki, was 9.86 nM. In addition, at α5-GABAA receptor [4], the inhibition at 0.1 µM turned out to be 41%. In addition, the solubility (thermodynamic) at 4 h in data set [1] was 191 µg/mL (≈ 426 µM).
`Cc1onc(-c2ccc(F)cc2)c1COc1ccc(N2CCn3c(C)nnc3C2=O)nn1` [Compound 36, 7-(6-((3-(4-fluorophenyl)-5-methylisoxazol-4-yl)methoxy)pyridazin-3-yl)-3-methyl-6,7-dihydro-[1,2,4]triazolo[4,3-a]pyrazin-8(H)-one] registered a Ki in data set [2] of 3.39 nM. Further, in data set [3], the “Selectivity α2 ki/α5 ki” value turned out to be 46.9 folds. In addition, the inhibition at 0.1 µM at α5-GABAA receptor [4] was 45%.
